Results: patent US20210392895A1, “NOVEL OXADIAZOLES” (PI INDUSTRIES LIMITED, priority 2018, published 2021)

System: Phakopsora pachyrhizi
Test: Phakopsora pachyrhizi test in soybean (greenhouse, preventive activity, disease severity rating)
Type: in vivo
Settings: preventive spray on soybean, compared to the untreated check
Method: To test the preventive activity of compounds, healthy young soybean plants, raised in the greenhouse, were sprayed with the active compound solution at the stated application rates inside spray cabinets using hallowcone nozzles. One day after treatment, the plants were inoculated with a suspension containing 2.1×10^6 Phakopsora pachyrhizi spores. The inoculated plants were then kept in the greenhouse chamber at 25° C. temperature and 90% relative humidity for disease expression. A visual assessment of the compound's performance was carried out by rating the disease severity (0-100% scale) on treated plants on 3, 7, 10 and 15 days after application. Efficacy (% control) of the compounds was calculated by comparing the disease rating in the treatment with the one of the untreated control. The treated plants were also assessed for plant compatibility by recording symptoms like necrosis, chlorosis and stunting.

Compound | pest or weed control at 500 ppm [%]
O=S(=O)(c1ccccc1)N1CC[C@H](Oc2ccc(-c3noc(C(F)(F)F)n3)cn2)C1 [Compound 104, (S)-3-(6-((1-(phenylsulfonyl)pyrrolidin-3-yl)oxy)pyridin-3-yl)-5-(trifluoromethyl)-1,2,4-oxadiazole] | > 70
O=S(=O)(c1cccc(F)c1)N1CC[C@H](Oc2ccc(-c3noc(C(F)(F)F)n3)cc2)C1 [Compound 26, (S)-3-(4-((1-((3-fluorophenyl)sulfonyl)pyrrolidin-3-yl)oxy)phenyl)-5-(trifluoromethyl)-1,2,4-oxadiazole] | > 70
CCCS(=O)(=O)N1CC[C@H](Oc2ccc(-c3noc(C(F)(F)F)n3)cc2)C1 [Compound 115, (S)-3-(4-((1-(propylsulfonyl)pyrrolidin-3-yl)oxy)phenyl)-5-(trifluoromethyl)-1,2,4-oxadiazole] | > 70
O=C(c1cccc(F)c1)N1CC[C@H](Oc2ccc(-c3noc(C(F)(F)F)n3)cn2)C1 [Compound 47, (S)-(3-fluorophenyl)(3-((5-(5-(trifluoromethyl)-1,2,4-oxadiazol-3-yl)pyridin-2-yl)oxy)pyrrolidin-1-yl)methanone] | > 70
O=C(c1ccccc1)N1CC[C@H](Oc2ccc(-c3noc(C(F)(F)F)n3)cc2)C1 [Compound 15, (S)-phenyl(3-(4-(5-(trifluoromethyl)-1,2,4-oxadiazol-3-yl)phenoxy)pyrrolidin-1-yl)methanone] | > 70
C[N+]1(C)CC[C@H](Oc2ccc(-c3noc(C(F)(F)F)n3)cn2)C1 [Compound 51, (S)-1,1-dimethyl-3-((5-(5-(trifluoromethyl)-1,2,4-oxadiazol-3-yl)pyridin-2-yl)oxy)pyrrolidin-1-ium 2,2,2-trifluoroacetate] | > 70
O=C(c1cccc(Br)c1)N1CC[C@H](Oc2ccc(-c3noc(C(F)(F)F)n3)cc2)C1 [Compound 3, (S)-(3-bromophenyl)(3-(4-(5-(trifluoromethyl)-1,2,4-oxadiazol-3-yl)phenoxy)pyrrolidin-1-yl)methanone] | > 70
O=C(c1ccccc1)N1CCC(Oc2ccc(-c3noc(C(F)(F)F)n3)cc2)CC1 [Compound 81, phenyl(4-(4-(5-(trifluoromethyl)-1,2,4-oxadiazol-3-yl)phenoxy)piperidin-1-yl)methanone] | > 70
O=C(c1ccc(F)cc1)N1CCC(Oc2ccc(-c3noc(C(F)(F)F)n3)cc2)CC1 [Compound 142, (4-fluorophenyl)(4-(4-(5-(trifluoromethyl)-1,2,4-oxadiazol-3-yl)phenoxy)piperidin-1-yl)methanone] | > 70
CC(C)(C)OC(=O)N1CC[C@@H](Sc2ccc(-c3noc(C(F)(F)F)n3)cc2)C1 [Compound 157, tert-butyl (R)-3-((4-(5-(trifluoromethyl)-1,2,4-oxadiazol-3-yl)phenyl)thio)pyrrolidine-1-carboxylate] | > 70
Cn1cnc(S(=O)(=O)N2CC[C@H](Oc3ccc(-c4noc(C(F)(F)F)n4)cc3)C2)c1 [Compound 148, (S)-3-(4-((1-((1-methyl-1H-imidazol-4-yl)sulfonyl)pyrrolidin-3-yl)oxy)phenyl)-5-(trifluoromethyl)-1,2,4-oxadiazole] | > 70
CN(c1ccc(-c2noc(C(F)(F)F)n2)cc1)C1CN(C(=O)c2ccc(F)cc2)C1 [Compound 124, (4-fluorophenyl)(3-(methyl(4-(5-(trifluoromethyl)-1,2,4-oxadiazol-3-yl)phenyl)amino)azetidin-1-yl)methanone] | > 70
CC(C)(C)OC(=O)N1CCC(Oc2ccc(-c3noc(C(F)(F)F)n3)cc2)CC1 [Compound 84, tert-butyl 4-(4-(5-(trifluoromethyl)-1,2,4-oxadiazol-3-yl)phenoxy)piperidine-1-carboxylate] | > 70
O=C(c1cccnc1)N1CC[C@H](Oc2ccc(-c3noc(C(F)(F)F)n3)c(F)c2)C1 [Compound 65, (S)-(3-(3-fluoro-4-(5-(trifluoromethyl)-1,2,4-oxadiazol-3-yl)phenoxy)pyrrolidin-1-yl)(pyridin-3-yl)methanone] | > 70
COc1ccc(C(=O)N2CC[C@H](Oc3ccc(-c4noc(C(F)(F)F)n4)cn3)C2)cc1 [Compound 46, (S)-(4-methoxyphenyl)(3-((5-(5-(trifluoromethyl)-1,2,4-oxadiazol-3-yl)pyridin-2-yl)oxy)pyrrolidin-1-yl)methanone] | > 70
O=C(c1ccccc1F)N1CC[C@H](Oc2ccc(-c3noc(C(F)(F)F)n3)cc2F)C1 [Compound 52, (S)-(3-(2-fluoro-4-(5-(trifluoromethyl)-1,2,4-oxadiazol-3-yl)phenoxy)pyrrolidin-1-yl)(2-fluorophenyl)methanone] | > 70

Compound | pest or weed control at 500 ppm [%]
O=S(=O)(Cc1ccccc1)N1CC(Oc2ccc(-c3noc(C(F)(F)F)n3)cc2)C1 [Compound 22, 3-(4-((1-(benzylsulfonyl)azetidin-3-yl)oxy)phenyl)-5-(trifluoromethyl)-1,2,4-oxadiazole] | > 70
O=S(=O)(c1ccc(Cl)cc1Cl)N1CC[C@H](Oc2ccc(-c3noc(C(F)(F)F)n3)cc2)C1 [Compound 120, (S)-3-(4-((1-((2,4-dichlorophenyl)sulfonyl)pyrrolidin-3-yl)oxy)phenyl)-5-(trifluoromethyl)-1,2,4-oxadiazole] | > 70
O=S(=O)(c1ccc(Br)cc1)N1CC[C@H](Oc2ccc(-c3noc(C(F)(F)F)n3)cc2)C1 [Compound 116, (S)-3-(4-((1-((4-bromophenyl)sulfonyl)pyrrolidin-3-yl)oxy)phenyl)-5-(trifluoromethyl)-1,2,4-oxadiazole] | > 70
CS(=O)(=O)N1CC[C@H](Oc2ccc(-c3noc(C(F)(F)F)n3)cn2)C1 [Compound 111, (S)-3-(6-((1-(methylsulfonyl)pyrrolidin-3-yl)oxy)pyridin-3-yl)-5-(trifluoromethyl)-1,2,4-oxadiazole] | > 70
O=C(c1ccncc1)N1CC[C@H](Oc2ccc(-c3noc(C(F)(F)F)n3)nc2)C1 [Compound 32, (S)-pyridin-4-yl(3-((6-(5-(trifluoromethyl)-1,2,4-oxadiazol-3-yl)pyridin-3-yl)oxy)pyrrolidin-1-yl)methanone] | > 70
O=C(c1ccccc1F)N1CC(Oc2ccc(-c3noc(C(F)(F)F)n3)cc2)C1 [Compound 20, (2-fluorophenyl)(3-(4-(5-(trifluoromethyl)-1,2,4-oxadiazol-3-yl)phenoxy)azetidin-1-yl)methanone] | > 70
Cc1ccsc1S(=O)(=O)N1CC[C@H](Oc2ccc(-c3noc(C(F)(F)F)n3)cc2)C1 [Compound 147, (S)-3-(4-((1-((3-methylthiophen-2-yl)sulfonyl)pyrrolidin-3-yl)oxy)phenyl)-5-(trifluoromethyl)-1,2,4-oxadiazole] | > 70
O=C(c1ccc(C(F)(F)F)cc1)N1CCC(Oc2cccc(-c3noc(C(F)(F)F)n3)c2)C1 (centres unmarked) [Compound 143, (3-(3-(5-(trifluoromethyl)-1,2,4-oxadiazol-3-yl)phenoxy)pyrrolidin-1-yl)(4-(trifluoromethyl)phenyl)methanone] | > 70
CCCS(=O)(=O)N1CC[C@H](Oc2ccc(-c3noc(C(F)(F)F)n3)cn2)C1 [Compound 110, (S)-3-(6-((1-(propylsulfonyl)pyrrolidin-3-yl)oxy)pyridin-3-yl)-5-(trifluoromethyl)-1,2,4-oxadiazole] | > 70
O=C(c1cccc(F)c1)N1CC(Oc2ccc(-c3noc(C(F)(F)F)n3)cc2)C1 [Compound 18, (3-fluorophenyl)(3-(4-(5-(trifluoromethyl)-1,2,4-oxadiazol-3-yl)phenoxy)azetidin-1-yl)methanone] | > 70
COc1ccc(S(=O)(=O)N2CC[C@H](Oc3ccc(-c4noc(C(F)(F)F)n4)cn3)C2)cc1 [Compound 105, (S)-3-(6-((1-((4-methoxyphenyl)sulfonyl)pyrrolidin-3-yl)oxy)pyridin-3-yl)-5-(trifluoromethyl)-1,2,4-oxadiazole] | > 70
O=S(=O)(c1ccccc1)N1CC[C@@H](Oc2ccc(-c3noc(C(F)(F)F)n3)cn2)C1 [Compound 71, (R)-3-(6-((1-(phenylsulfonyl)pyrrolidin-3-yl)oxy)pyridin-3-yl)-5-(trifluoromethyl)-1,2,4-oxadiazole] | > 70
N#Cc1ccc(S(=O)(=O)N2CC[C@H](Oc3ccc(-c4noc(C(F)(F)F)n4)cn3)C2)cc1 [Compound 150, (S)-4-((3-((5-(5-(trifluoromethyl)-1,2,4-oxadiazol-3-yl)pyridin-2-yl)oxy)pyrrolidin-1-yl)sulfonyl)benzonitrile] | > 70
O=C(c1ccc(C(F)(F)F)cc1)N1CCC(Oc2ccc(-c3noc(C(F)(F)F)n3)cc2)CC1 [Compound 102, (4-(4-(5-(trifluoromethyl)-1,2,4-oxadiazol-3-yl)phenoxy)piperidin-1-yl)(4-(trifluoromethyl)phenyl)methanone] | > 70
CC(C)(C)OC(=O)N1CCC(Oc2cccc(-c3noc(C(F)(F)F)n3)c2)C1 (centres unmarked) [Compound 127, tert-butyl 3-(3-(5-(trifluoromethyl)-1,2,4-oxadiazol-3-yl)phenoxy)pyrrolidine-1-carboxylate] | > 70
O=C(c1cccc(F)c1)N1CC[C@H](Oc2ccc(-c3noc(C(F)(F)F)n3)c(F)c2)C1 [Compound 64, (S)-(3-(3-fluoro-4-(5-(trifluoromethyl)-1,2,4-oxadiazol-3-yl)phenoxy)pyrrolidin-1-yl)(3-fluorophenyl)methanone] | > 70
